Measured values as given in patent US20080255244A1, “CaM Kinase II Inhibitor Improves Retinoic Acid Therapy and Inhibits the Proliferation of Myeloid Leukemia Cells” (Fred Hutchinson Cancer Research Center, priority 2007, published 2008).

What was measured:
[1] = tested on: activated CaMKIIγ in U937 cells; assay: Western blot of CaMKIIγ autophosphorylation in U937 cells; format: cell-based, human
Experimental: (§1) FIG. 9. Terminal differentiation/apoptosis of myeloid leukemia cells is associated with decreased CaMKIIγ activation. (A) Lysates from the HL60, NB4 and U937 myeloid cell lines treated with ATRA (1 μM) for the indicated period of time were subjected to Western blots. (B) Lysates from the indicated myeloid cell lines treated for five days with the indicated concentration of ATRA were subjected to Western blots. (C) Lysates from HL60 cells treated with TPA (0.1 μM) for the indicated time were subjected to Western blots. (D) Lysates from NB4 cells treated with arsenic trioxide (1 uM) for the indicated time were subjected to Western blots.
(§2) Antibodies and Western blots. Protein extracts, immunoprecipitations and Western blots were performed as previously detailed (Si J, Collins S J. IL-3-induced enhancement of retinoic acid receptor activity is mediated through Stat5, which physically associates with retinoic acid receptors in an IL-3-dependent manner. Blood 100: 4401-9 (2002)). Antibodies against CaMKI, CaMKIIγ, CaMKIV, c-myc, Stat3, Stat5, calmodulin, as well as the phosphospecific CaMKII (T286, 287) and phosphospecific CaMKI (T177) antibodies were from Santa Cruz Biotechnology. […]

[2] = tested on: activated CaMKIIγ in HL60R cells; assay: Western blot of CaMKIIγ autophosphorylation in HL60R cells; format: cell-based, human; conditions: five days ATRA
Experimental: as §1, §2

[3] = tested on: activated CaMKIIγ in KG1 cells; assay: Western blot of CaMKIIγ autophosphorylation in KG1 cells; format: cell-based, human; conditions: five days ATRA
Experimental: as §1, §2

[4] = tested on: activated CaMKIIγ in THP1 cells; assay: Western blot of CaMKIIγ autophosphorylation in THP1 cells; format: cell-based, human; conditions: five days ATRA
Experimental: as §1, §2

[5] = tested on: C/EBPε expression in HL60; assay: Western blot of C/EBPε expression in HL60 cells; format: cell-based, human; conditions: ATRA 1 uM
Experimental: FIG. 6. Retinoic acid induces changes in the association of CaMKIIγ with the C/EBPε promoter RARE. […] (B) The human C/EBPε 5′ region indicating the location of the ChIP PCR primers. (C) ChIP assays. HL60 cell chromatin from cells treated with ATRA (1 uM) for the indicated time was immunoprecipitated with the indicated antibodies, the DNA isolated and subjected to PCR utilizing the indicated C/EBPε promoter primer pairs.
Protein extracts, Western blotting and co-immunoprecipitations. Westerns and co-immunoprecipitations were performed as previously detailed (Si, J., and Collins, S. J., Blood 100:4401-4409 (2002)).

MPRO cell line = assay: Granulocytic differentiation of MPRO cell line; format: cell-based; conditions: single agent; not shown
Source text: Thus the CaMK inhibitor KN-62 not only enhances RAR transcriptional activity but either as a single agent or in combination with relatively low doses of RA can induce/enhance the differentiation of different myeloid leukemia cell lines.

KCL22 cells = assay: KCL22 proliferation in liquid suspension culture; format: cell-based, human
Experimental: FIG. 11. […] (A) K562 cells were seeded in liquid suspension culture at 5×10^4 cells/ml in the presence or absence of the indicated concentration of compounds, and cell counts were obtained at the indicated time. (B) The indicated myeloid leukemia cell lines were seeded in liquid suspension culture at 5×10^4 cells/ml in the presence or absence of KN93, and cell counts obtained at the indicated time. (C) K562 cells were electroporated with the LXSN expression vector harboring the kinase dead, Lys^43 mutated, truncated CaMKII construct (kdCaMKII) as well as with the control (empty) LXSN vector. The electroporated cells were diluted into 96 well plates in liquid suspension culture in the presence of G418 (1 mg/ml). Following eight days of culture the total number of discrete, actively proliferating G418 resistant colonies within individual wells was determined.
Cell lines. All leukemia cell lines are cultured at 37° in RPMI supplemented with 5% heat-inactivated fetal calf serum.

CC1=C(/C=C/C(C)=C/C=C/C(C)=C/C(=O)O)C(C)(C)CCC1 [ATRA, All-trans retinoic acid]
total CaMKIIγ level [1]: essentially unchanged
activated CaMKIIγ level ([1]; ATRA 1 μM): marked decrease
activated CaMKIIγ level [2]: not observed
activated CaMKIIγ level [3]: did not exhibit any decrease
activated CaMKIIγ level [4]: did not exhibit any decrease
C/EBPε expression [5]: enhanced

CN([C@@H](Cc1ccc(OS(=O)(=O)c2cccc3cnccc23)cc1)C(=O)N1CCN(c2ccccc2)CC1)S(=O)(=O)c1cccc2cnccc12 [KN-62]
granulocytic differentiation of MPRO (MPRO cell line): enhanced

COc1ccc(S(=O)(=O)N(CCO)c2ccccc2CN(C)C/C=C/c2ccc(Cl)cc2)cc1 [KN-93]
cell proliferation (KCL22 cells): inhibition
cell viability or morphologic differentiation (KCL22 cells): without any significant effect
